Data published in ChEMBL document CHEMBL3244232, “Steric effects of substituents on phenethylamine hallucinogens. 3,4-(Methylenedioxy)amphetamine analogues alkylated on the dioxole ring” (J Med Chem, 1979).
Active and inactive are the calls of the source. The rule behind the calls is not given here.

Tests used:
[1] = Toxicity in ip dosed Swiss Webster mouse after 5 mins; type: organism-based; settings: in vivo
Mus musculus [2] = assay: Induction of spontaneous activity in Swiss Webster mouse assessed as spontaneous activity counts at 0.30 mmol/kg, ip measured over 90 mins; type: functional
Mus musculus [3] = assay: Induction of hyperactivity in Swiss Webster mouse assessed as exploratory behavior at <0.3 mmol/kg, ip up to 90 mins; type: functional, organism-based
Mus musculus [4] = assay: Toxicity in Swiss Webster mouse assessed as mortality at 0.338 mmol/kg, ip after 5 mins; type: organism-based; settings: in vivo
[5] = Octanol-water partition coefficient, log P of the compound; type: physicochemical
Mus musculus [6] = assay: Toxicity in Swiss Webster mouse assessed as recovery at 0.675 mmol/kg, ip after 30 mins; type: organism-based; settings: in vivo, 0.5 h
Mus musculus [7] = assay: Effect on Swiss Webster mouse assessed as sleeping at 0.675 mmol/kg, ip after 1 hr; type: ADME, organism-based; settings: in vivo
[8] = Chemical stability of the compound at 0.1 M at pH 5.3 at 37 degC after 24 hrs by 1H NMR spectroscopy; type: physicochemical; settings: buffer, pH 5.3, 24 h
Mus musculus [9] = assay: Induction of hyperactivity in Swiss Webster mouse assessed as grooming at <0.3 mmol/kg, ip up to 90 mins; type: functional, organism-based
Mus musculus [10] = assay: Toxicity in Swiss Webster mouse assessed as depression at <0.3 mmol/kg, ip up to 90 mins; type: organism-based; settings: in vivo, 1.5 h
Mus musculus [11] = assay: Effect on Swiss Webster mouse assessed as sleeping at 0.3 mmol/kg, ip after 20 mins; type: ADME, organism-based; settings: in vivo
Mus musculus [12] = assay: Induction of hyperactivity in Swiss Webster mouse assessed as salivation at <0.3 mmol/kg, ip up to 90 mins; type: functional, organism-based
Mus musculus [13] = assay: Toxicity in Swiss Webster mouse assessed as clonic convulsions at 0.675 mmol/kg, ip after 8 to 10 mins; type: organism-based; settings: in vivo
Mus musculus [14] = assay: Toxicity in Swiss Webster mouse assessed as occasional tremor at 0.3 mmol/kg, ip up to 20 mins; type: organism-based; settings: in vivo
Mus musculus [15] = assay: Effect on Swiss Webster mouse assessed as sleeping at <0.3 mmol/kg, ip up to 90 mins; type: ADME, organism-based; settings: in vivo, 1.5 h
Mus musculus [16] = assay: Induction of hyperactivity in Swiss Webster mouse assessed as sniffing at <0.3 mmol/kg, ip up to 90 mins; type: functional, organism-based
Mus musculus [17] = assay: Induction of spontaneous activity in Swiss Webster mouse assessed as spontaneous activity counts at 0.025 mmol/kg, ip measured over 90 mins; type: functional
Mus musculus [18] = assay: Toxicity in Swiss Webster mouse assessed as tremor at 0.675 mmol/kg, ip after 8 to 10 mins; type: organism-based; settings: in vivo
Mus musculus [19] = assay: Induction of spontaneous activity in Swiss Webster mouse assessed as spontaneous activity counts at 0.225 mmol/kg, ip measured over 90 mins; type: functional
Mus musculus [20] = assay: Toxicity in Swiss Webster mouse assessed as clonic convulsions at 0.3 mmol/kg, ip up to 20 mins; type: organism-based; settings: in vivo
Mus musculus [21] = assay: Induction of hyperactivity in Swiss Webster mouse assessed as exopthalmia at <0.3 mmol/kg, ip up to 90 mins; type: functional, organism-based
Mus musculus [22] = assay: Induction of spontaneous activity in Swiss Webster mouse assessed as spontaneous activity counts at 0.075 mmol/kg, ip measured over 90 mins; type: functional
Mus musculus [23] = assay: Induction of hyperactivity in Swiss Webster mouse assessed as piloerection at <0.3 mmol/kg, ip up to 90 mins; type: functional, organism-based
Mus musculus [24] = assay: Toxicity in Swiss Webster mouse assessed as mortality at 0.675 mmol/kg, ip after 5 mins; type: organism-based; settings: in vivo
Mus musculus [25] = assay: Induction of hyperactivity in Swiss Webster mouse assessed as pilomotor erection at 0.025 to 0.3 mmol/kg, ip up to 90 mins; type: functional, organism-based
Mus musculus [26] = assay: Toxicity in Swiss Webster mouse assessed as symmetric clonic convulsions with vocalization at 0.675 mmol/kg, ip after 2 to 3 mins; type: organism-based; settings: in vivo
Mus musculus [27] = assay: Induction of hyperactivity in Swiss Webster mouse assessed as exploratory behavior at 0.025 to 0.3 mmol/kg, ip up to 90 mins; type: functional, organism-based
Mus musculus [28] = assay: Toxicity in Swiss Webster mouse assessed as ataxia at 0.675 mmol/kg, ip after 2 to 3 mins; type: organism-based; settings: in vivo
Mus musculus [29] = assay: Induction of hyperactivity in Swiss Webster mouse assessed as exopthalmia at 0.225 to 0.3 mmol/kg, ip up to 90 mins; type: functional, organism-based
Mus musculus [30] = assay: Induction of hyperactivity in Swiss Webster mouse assessed as grooming at 0.225 to 0.3 mmol/kg, ip up to 90 mins; type: functional, organism-based
Mus musculus [31] = assay: Induction of hyperactivity in Swiss Webster mouse assessed as grooming at 0.025 to 0.3 mmol/kg, ip up to 90 mins; type: functional, organism-based
Mus musculus [32] = assay: Induction of hyperactivity in Swiss Webster mouse assessed as sniffing at 0.025 to 0.3 mmol/kg, ip up to 90 mins; type: functional, organism-based
Mus musculus [33] = assay: Induction of hyperactivity in Swiss Webster mouse assessed as exopthalmia at 0.025 to 0.3 mmol/kg, ip up to 90 mins; type: functional, organism-based
Mus musculus [34] = assay: Effect on Swiss Webster mouse assessed as sleeping at 0.025 to 0.3 mmol/kg, ip; type: ADME, organism-based; settings: in vivo
Mus musculus [35] = assay: Toxicity in Swiss Webster mouse assessed as tremor at 0.675 mmol/kg, ip after 2 to 3 mins; type: organism-based; settings: in vivo
Mus musculus [36] = assay: Induction of hyperactivity in Swiss Webster mouse assessed as salivation at 0.025 to 0.3 mmol/kg, ip up to 90 mins; type: functional, organism-based
Mus musculus [37] = assay: Induction of hyperactivity in Swiss Webster mouse assessed as salivation at 0.225 to 0.3 mmol/kg, ip up to 90 mins; type: functional, organism-based

Compound | MTD at 5 min [1] | Activity (Mus musculus [2]) | logP [5] | Activity (Mus musculus [17]) | Activity (Mus musculus [19]) | Activity (Mus musculus [22]) | Activity (Mus musculus [24]) | Activity (Mus musculus [25]) | Activity (Mus musculus [27]) | Activity (Mus musculus [31]) | Activity (Mus musculus [32]) | Activity (Mus musculus [33]) | Activity (Mus musculus [36]) | further results
CC(N)Cc1ccc2c(c1)OC(C)(C)O2 (centres undefined) | 338 µmol/kg | 33 min⁻¹ | 2.6 | 30 min⁻¹ | 17 min⁻¹ | 27 min⁻¹ | Toxic |  |  |  |  |  |  | Activity (Mus musculus [3]): inactive; Activity (Mus musculus [4]): Toxic; Activity (Mus musculus [6]): Non-toxic; Activity (Mus musculus [7]): Non-toxic; Stability [8]: Stable; Activity (Mus musculus [9]): inactive; Activity (Mus musculus [10]): Toxic; Activity (Mus musculus [11]): Non-toxic; Activity (Mus musculus [12]): inactive; Activity (Mus musculus [13]): Toxic; Activity (Mus musculus [14]): Toxic; Activity (Mus musculus [15]): Non-toxic; Activity (Mus musculus [16]): inactive; Activity (Mus musculus [18]): Toxic; Activity (Mus musculus [20]): Toxic; Activity (Mus musculus [21]): inactive; Activity (Mus musculus [23]): inactive
CC(N)Cc1ccc2c(c1)OC(C)O2 (centres undefined) | 300 µmol/kg | 192 min⁻¹ | 2.1 | 39 min⁻¹ | 94 min⁻¹ | 25 min⁻¹ | Toxic | Active | Active | Active | Active | Active | Active | Activity (Mus musculus [26]): Toxic; Activity (Mus musculus [28]): Toxic; Activity (Mus musculus [29]): Active; Activity (Mus musculus [30]): Active; Activity (Mus musculus [34]): Non-toxic; Activity (Mus musculus [35]): Toxic; Activity (Mus musculus [37]): Active
CC(N)Cc1ccc2c(c1)OCO2 (centres undefined) [TENAMFETAMINE] |  |  | 1.64 | 64 min⁻¹ | 105 min⁻¹ | 276 min⁻¹ |  | Active | Active | Active | Active | Active | Active | 
